Measurements: patent US20150065421A1, “BASAL INSULIN THERAPY” (SANOFI, priority 2012, published 2015)

Columns and labels:
[1] = Respective studies with other long-acting insulins; format: in vivo; settings: no data given
From the text: The results of the ORIGIN study were obtained with the long-lasting insulin glargine.

[2] = tested on: diabetic patients hospitalized with acute MI; settings: IV insulin-glucose infusion then chronic insulin vs standard treatment; cited from earlier work
[3] = tested on: critical-care post-surgical patients; settings: intervention group: insulin infusion to blood glucose 80-110 mg/dL; cited from earlier work

| Substance | results of respective studies compared with the ORIGIN results of insulin glargine [1] | reduction of all-cause mortality [2] [%] | overall mortality at twelve-months follow-up [3] [%] |
| --- | --- | --- | --- |
| insulin degludec | comparable results |  |  |
| insulin detemir | comparable results |  |  |
| insulin: insulin infusion or chronic insulin treatment in cited DIGAMI and Belgian ICU studies |  | 28 | 8.0 |
